Source: paper PMC11904993, “Humanized Candida and NanoBiT Assays Expedite Discovery of Bdf1 Bromodomain Inhibitors With Antifungal Potential” (Advanced Science, 2025)
Where “and” joins values, the source holds several entries; their conditions need not be identical. Equal values may be shown once. Read-outs that look alike come from different tables or passages of the source.

Assays:
human Brd4 BD1 = human Brd4 BD1 (Homo sapiens, UniProt O60885); test: HTRF assay, inhibition of H4ac4 peptide binding
CgBdf1 BD2 [1] = test: Histone peptide array assay
Protocol: (§1) The array was prepared as described in the manufacturer's instructions. […] The array was then washed three times with binding buffer. Anti‐GST antibody (GE Healthcare) was used for the detection of GST‐tagged bromodomains.

CgBdf1 BD1 [2] = test: Histone peptide array assay
Protocol: as §1

[3] = system: C. glabrata strains expressing WT and mutant Bdf1; test: Growth inhibition in liquid media, C. glabrata lab strains; settings: Nakaseomyces glabratus, single experiments Exp1-3
Protocol: Growth on Liquid Media with C. glabrata Lab Strains: Cells were grown at 30 °C in SC+M+C‐U medium (SC medium with 5 mM methionine, 0.25 mM cysteine, without uracil) to an OD600 of 0.5–0.8. […] Plates were incubated at 30 °C and OD600 was measured using a Multiskan FC Microplate Photometer (Thermo Fisher).

CgBdf1 BD1 [4] = target: CgBdf1 BD1 (Candida glabrata, UniProt Q6FWV7); test: HTRF assay, inhibition of H4ac4 peptide binding; set-up: species or system C. glabrata
Chain of CgBdf1 BD1 (Candida glabrata, UniProt Q6FWV7) (Q6FWV7 entry or part of it): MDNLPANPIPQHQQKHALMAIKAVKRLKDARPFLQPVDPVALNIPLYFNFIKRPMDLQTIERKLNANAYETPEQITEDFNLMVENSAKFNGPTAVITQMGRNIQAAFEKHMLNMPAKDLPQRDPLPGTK

CgBdf1 BD2 [5] = target: CgBdf1 BD2 (Candida glabrata, UniProt Q6FWV7); test: biochemical; assay type: binding, C. glabrata
Chain of CgBdf1 BD2 (Candida glabrata, UniProt Q6FWV7) (Q6FWV7 entry or part of it): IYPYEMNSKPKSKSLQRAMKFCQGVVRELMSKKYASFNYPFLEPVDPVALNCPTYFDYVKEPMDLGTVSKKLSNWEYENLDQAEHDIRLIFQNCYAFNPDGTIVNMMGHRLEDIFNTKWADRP

human Brd4 BD2 = target: T1, human Brd4 BD2 (Homo sapiens, UniProt O60885); test: HTRF assay, inhibition of H4ac4 peptide binding; settings: Table S3; estimate, preliminary single-replicate HTRF assay; read-out: IC50 Brd4 BD2
T1 construct: GST‐tagged BD2 (residues 349–460) from human Brd4 (UniProt ID O60885); purchased Reaction Biology Corp

## COc1ccc(CNc2nc(-c3ccccc3)nnc2C)cc1 [Compound 10]
Human Brd4 BD1
  IC50: > 20 µM
CgBdf1 BD2 [1]; CgBdf1 BD2 WT, normalized peptide array signal
  Normalized (0 to 100%), WT, Average: 0.608%
CgBdf1 BD2 [1]; CgBdf1 BD2 WT, peptide array signal, left replicate
  Raw data, WT, Left: 0.004055
CgBdf1 BD2 [1]; CgBdf1 BD2 WT, peptide array signal, right replicate
  Raw data, WT, Rigt: 0.00811
CgBdf1 BD2 [1]; CgBdf1 BD2 YF mutant, normalized peptide array signal
  Normalized (0 to 100%), YF mutant, Average: 0.859%
CgBdf1 BD2 [1]; CgBdf1 BD2 YF mutant, peptide array signal, left replicate
  Raw data, YF mutant, Left: 0.01319
CgBdf1 BD2 [1]; CgBdf1 BD2 YF mutant, peptide array signal, right replicate
  Raw data, YF mutant, Right: 0.003988
CgBdf1 BD1 [2]; CgBdf1 BD1 WT, normalized peptide array signal
  Normalized (0 to 100%), WT, Average: 2.21%
CgBdf1 BD1 [2]; CgBdf1 BD1 WT, peptide array signal, left replicate
  Raw data, WT, Left: 0.006616
CgBdf1 BD1 [2]; CgBdf1 BD1 WT, peptide array signal, right replicate
  Raw data, WT, Rigt: 0.03749
CgBdf1 BD1 [2]; CgBdf1 BD1 YF mutant, normalized peptide array signal
  Normalized (0 to 100%), YF mutant, Average: 0.293%
CgBdf1 BD1 [2]; CgBdf1 BD1 YF mutant, peptide array signal, left replicate
  Raw data, YF mutant, Left: 0.003085
CgBdf1 BD1 [2]; CgBdf1 BD1 YF mutant, peptide array signal, right replicate
  Raw data, YF mutant, Right: 0.002776
[3]; read-out: pEC50 (WT BDF1), Fig 2D (converted), WT C. glabrata
  EC50: 180 µM
[3]; read-out: pEC50 growth inhibition, Fig 2C (converted), strain BD1 Y-F
  EC50: 149 µM
CgBdf1 BD1 [4]; Fig 2C original data, analogs of 24, single experiments Exp1-3, read-out: pIC50 CgBD1 (converted)
  IC50: 2.28 µM and 2.58 µM and 1.86 µM
CgBdf1 BD1 [4]; Table S3, estimate, preliminary single-replicate HTRF assay, read-out: IC50 CgBdf1 BD1
  IC50: 5 µM
CgBdf1 BD2 [5]; Fig 2C original data, analogs of 24, single experiments Exp1-3, read-out: pIC50 CgBD2 (converted)
  IC50: > 100 µM
CgBdf1 BD2 [5]; Table S3, estimate, preliminary single-replicate HTRF assay, read-out: IC50 CgBdf1 BD2
  IC50: > 20 µM
Human Brd4 BD2
  IC50: > 20 µM
